US7658937B2, “Anthraquinones and process for the preparation and method of use thereof” (Board of Trustees of Michigan State University, priority 2004, dated 2010)

Legend:
[1] = tested on: adult female filarial (Brugia malayi) worms; experiment: Mortality and inhibition of motility of adult female filarial worms at 5 ppm (Example 2); format: cell-based; settings: for time to 100% mortality: adult female worms
From the text: (§1) A collection of 100 adult female Brugia malayi were obtained through an NIH subcontract from Dr. John McCall, University of Georgia in order to test the efficacy of anthraquinones as antifilarial agents. Three worms per well were transferred to 6 well plates containing fresh RPMI 1640 culture medium supplemented with L-glutamine and penicillin/streptomycin. […] Duplicate control groups received 2% DMSO or no DMSO. The medium was removed and replaced with fresh RPMI with or without drug in DMSO every 48 h. The movement and viability of the adult worms were monitored every 24 h till 10 days. The B. malayi worms in control wells were fully motile till the end of 10th day and the worms treated with anthraquinones were dead.
The anthraquinones A, B, D, E, F, J, Q and R, selected randomly, were assayed against adult female filarial (Brugia malayi) worms for mortality and inhibition of motility. […] Other anthraquinones tested gave 100% mortality between 3-10 days (Table 3)

[2] = tested on: male B. malayi adult worms; experiment: Antifilarial activity against male adult worms at 5 ppm (Example 3); format: cell-based, Brugia malayi; settings: monitored for 20 days
Method: (§2) Live adult male and female B. malayi were obtained from John McCall, University of Georgia, Athens, Ga. (NIH Subcontract). Adult worms were transferred to 6 well plates (3 worms, male or female per well) containing fresh RPMI 1640 culture medium supplemented with L-glutamine and penicillin/streptomycin. Anthraquinones were dissolved separately in 100% DMSO (4mg/ml) and diluted with RPMI media to obtain a final concentration of 5 ppm. Duplicate control groups received 2.5% DMSO or no DMSO. Every 48 h, the medium from each well was removed and replaced with fresh RPMI with or without drug in DMSO. The movement and mortality of the filarial were monitored every 24 h for 20 days. All B. malayi worms in control wells were fully motile throughout the study and the worms treated with anthraquinones were dead.

[3] = tested on: female B. malayi adult worms; experiment: Antifilarial activity against female adult worms at 5 ppm (Example 3); format: cell-based, Brugia malayi; settings: monitored for 20 days
Method: as §2

B. malayi Microfilaria = experiment: Antifilarial activity against microfilaria at 5 ppm (Example 3); format: cell-based, Brugia malayi
B. Malayi adult worms = experiment: Dose response of active anthraquinones against adult worms (50 to 3.12 ppm); format: cell-based, Brugia malayi
From the text: as §1
Te assay was repeated with anthraquinones B, F, J and R since they killed the worms quickly compared to the other anthraquinones tested.

[4] = tested on: adult female and male B. malayi; experiment: Morphology of H & E stained sections of killed adult worms (FIGS. 6-9); format: cell-based, Brugia malayi; settings: killed by 5 ppm, H & E stain
From the text: FIG. 6 is a cross-sectional view of H & E stained normal control adult female Brugia malayi. Normal duplicate intrauterine structures contains many well-formed microfilaria larvae that have not yet been released from the uterus. Magnification×400. Calibration mark indicates 100 microns in FIGS. 6-9).
FIG. 7 is a longitudinal sectional view of normal adult male B. malayi. […] Magnification×40.

Schistosoma mansoni = settings: naturally occurring anthraquinone from daylily roots; Cichewicz et al. 2002; cited from earlier work
[5] = tested on: human filarial parasite, B.malayi; experiment: Activity of daylily anthraquinone against human filarial parasite; design: species or system Brugia malayi

| SMILES | 100% Mortality of B. Malayi ([1]; adult worms) | 100% Mortality of female B. malayi [3] | 100% Mortality of Microfilaria (Days)* (B. malayi Microfilaria) | further results |
| --- | --- | --- | --- | --- |
| CCCSc1ccc2nc(NC(=O)OC)[nH]c2c1 [Albendazole, reference compound] | 16 days | 16 days | No Mortality | 100% Mortality of male B. malayi [2]: 9 days |
| O=C1c2ccccc2C(=O)c2c1ccc(O)c2O [Anthraquinone A, 1,2-Dihydroxy anthraquinone] | 11 days | 5 days | 3 days |  |
| Cc1cc2c(c(O)c1O)C(=O)c1ccccc1C2=O [Anthraquinone B, 1,2-Dihydroxy-3-methyl anthraquinone] | 5 days | 5 days | 3 days | 100% Mortality of B. Malayi (B. Malayi adult worms; 3.125 ppm): 6 days; 100% Mortality of B. Malayi (B. Malayi adult worms; 6.25 ppm): 5 days; 100% Mortality of B. Malayi (B. Malayi adult worms; 12.5 ppm): 4 days; 100% Mortality of B. Malayi (B. Malayi adult worms; 25 ppm): 3 days; 100% Mortality of B. Malayi (B. Malayi adult worms; 50 ppm): 1 days; time to 100% mortality [1]: 24 h; 100% Mortality of male B. malayi [2]: 6 days; morphology of adult female B. malayi, cross-section [4]: disruption of the stable cuticle and hypodermal regions, along with disorganization of the intrauterine microfilariae; morphology of adult male B. malayi, longitudinal section [4]: marked loss of cellularity in hypodermal and deeper structures |
| Cc1c(O)c(O)cc2c1C(=O)c1ccccc1C2=O [Anthraquinone C, 1-Methyl-2,3-dihydroxy anthraquinone] | 7 days | 7 days | 3 days |  |
| O=C1c2ccccc2C(=O)c2c(O)cc(O)cc21 [Anthraquinone D, 1,3-Dihydroxy anthraquinone] |  |  | No Mortality | 100% Mortality of B. malayi (Days) ([1]; adult worms): No activity; 100% Mortality of female B. malayi (Days) [3]: No Mortality |
| O=C1c2ccccc2C(=O)c2c(O)ccc(O)c21 [Anthraquinone E, 1,4-Dihydroxy anthraquinone] | 10 days | 10 days | No Mortality |  |
| O=C1c2ccccc2C(=O)c2c1cc(O)c(O)c2O [Anthraquinone F, 1,2,3-Trihydroxy anthraquinone] | 5 days | 5 days | 3 days | 100% Mortality of B. Malayi (B. Malayi adult worms; 3.125 ppm): 5 days; 100% Mortality of B. Malayi (B. Malayi adult worms; 6.25 ppm): 5 days; 100% Mortality of B. Malayi (B. Malayi adult worms; 12.5 ppm): 4 days; 100% Mortality of B. Malayi (B. Malayi adult worms; 25 ppm): 4 days; 100% Mortality of B. Malayi (B. Malayi adult worms; 50 ppm): 2 days |
| O=C1c2cc(O)c(O)cc2C(=O)c2c(O)cccc21 [Anthraquinone G, 2,3,5-Trihydroxy anthraquinone] | 5 days | 5 days | 3 days |  |
| O=C1c2ccc(O)c(O)c2C(=O)c2cccc(O)c21 [Anthraquinone H, 1,2,5-Trihydroxy anthraquinone] | 9 days | 9 days | 3 days |  |
| O=C1c2cccc(O)c2C(=O)c2c1ccc(O)c2O [Anthraquinone I, 1,2,8-Trihydroxy anthraquinone] | 14 days | 14 days | 3 days |  |
| Cc1cc2c(c(O)c1O)C(=O)c1c(O)cccc1C2=O [Anthraquinone J, 1,2,8-Trihydroxy-3-methyl anthraquinone] | 5 days | 5 days | 3 days | 100% Mortality of B. malayi (Days) (B. Malayi adult worms; 3.125 ppm): No Mortality; 100% Mortality of B. Malayi (B. Malayi adult worms; 6.25 ppm): 5 days; 100% Mortality of B. Malayi (B. Malayi adult worms; 12.5 ppm): 4 days; 100% Mortality of B. Malayi (B. Malayi adult worms; 25 ppm): 3 days; 100% Mortality of B. Malayi (B. Malayi adult worms; 50 ppm): 2 days; time to 100% mortality [1]: 48 h; activity against Schistosoma mansoni (Schistosoma mansoni): significant activity; activity against human filarial parasite B.malayi [5]: active; 100% Mortality of male B. malayi [2]: 5 days |
| Cc1c(O)c(O)cc2c1C(=O)c1c(O)cccc1C2=O [Anthraquinone K, 1-Methyl-2,3,8-trihydroxy anthraquinone] | 3 days | 3 days | 1 days | 100% Mortality of male B. malayi [2]: 5 days |
| O=C1c2cc(O)cc(O)c2C(=O)c2cccc(O)c21 [Anthraquinone L, 1,3,5-Trihydroxy anthraquinone] | 7 days | 7 days | 3 days |  |
| O=C1c2cccc(O)c2C(=O)c2c(O)ccc(O)c21 [Anthraquinone M, 1,4,8-Trihydroxy anthraquinone] | 9 days | 9 days | 5 days |  |
| O=C1c2cc(O)c(O)c(O)c2C(=O)c2cccc(O)c21 [Anthraquinone N, 1,2,3,-5-Tetrahydroxy anthraquinone] | 5 days | 5 days | 3 days | 100% Mortality of male B. malayi [2]: 6 days |
| COc1c(C)cc2c(c1O)C(=O)c1ccccc1C2=O [Anthraquinone O, 1-Hydroxy-2-methoxy-3-methyl anthraquinone] |  |  | No Mortality | 100% Mortality of B. malayi (Days) ([1]; adult worms): No activity; 100% Mortality of female B. malayi (Days) [3]: No Mortality |
| COc1c(C)cc2c(c1OC)C(=O)c1ccccc1C2=O [Anthraquinone P, 1,2-Dimethoxy-3-methyl anthraquinone] | 11 days | 11 days | No Morality |  |
| COc1c(C)cc2c(c1O)C(=O)c1c(O)cccc1C2=O [Anthraquinone Q, 1,8-Dihydroxy-2-methoxy-3-methyl anthraquinone] |  |  | No Mortality | 100% Mortality of B. malayi (Days) ([1]; adult worms): No activity; 100% Mortality of female B. malayi (Days) [3]: No Mortality |
| COc1cccc2c1C(=O)c1c(cc(C)c(OC)c1O)C2=O [Anthraquinone R, 1-Hydroxy-2,8-dimethoxy-3-methyl anthraquinone] | 7 days | 7 days | No Mortality | 100% Mortality of B. malayi (Days) (B. Malayi adult worms; 3.125 ppm): No Mortality; 100% Mortality of B. Malayi (B. Malayi adult worms; 6.25 ppm): 8 days; 100% Mortality of B. Malayi (B. Malayi adult worms; 12.5 ppm): 4 days; 100% Mortality of B. Malayi (B. Malayi adult worms; 25 ppm): 2 days; 100% Mortality of B. Malayi (B. Malayi adult worms; 50 ppm): 1 days; time to 100% mortality [1]: 24 h |
| COc1cc2c(c(C)c1OC)C(=O)c1c(O)cccc1C2=O [Anthraquinone S, 1-Methyl-2,3-dimethoxy-8-hydroxy anthraquinone] | 9 days | 9 days | No Mortality | activity ([1]; adult worms, at 9 days): 50% |
